From patent US5691365A, “Nicotinic receptor antagonists in the treatment of neuropharmacological disorders” (University of Kentucky Research Foundation, priority 1995, dated 1997)
Values joined by “and” are separate entries in the source; they are usually repeats but may differ in a detail not shown here. Equal values may be shown once. “Also recorded” adds a separate entry of the source. Read-outs that look alike come from different tables or passages of the source.

Tests used:
[1] = system: [^3 H]DA release from rat striatal slices; experiment: [3H]DA release assay: compound-evoked (intrinsic agonist) release; format: cell-based
Protocol: (§1) Biological Methods. Male Spragua-Dawley rats (150-200 g) were obtained from Harlan Laboratories (Indianapolis, Ind.) and were housed two per cage with free access to food and water in the Division of Lab Animal Resources at the College of Pharmacy at the University of Kentucky. Experimental protocols involving the animals were approved by the Institutional Animal Care and Use Committee at the University of Kentucky.
(§2) [^3 H]DA Release Assay. Rat striatal slices (500 μm thickness, 6-8 mg wet weight) were obtained as previously described (Dwoskin and Zahniser, 1986). Slices were incubated for 30 min in Krebs' buffer ([…]; 118 NaCl, 4.7 KCl, 1.2 MgCl2, 1.0 NaH2 PO4, 1.3 CaCl2, […], 11.1 glucose, 25 NaHCO3, 0.11 L-ascorbic acid nd 0.004 disodium EDTA; pH 7.4 and saturated with 95% O2 /5% CO2) in a metabolic shaker at 34°. Slices were rinsed with 15 ml of fresh buffer and incubated for an additional 30 min in fresh buffer containing 0.1 μM [^3 H]dopamine (6 slices/3 ml). Subsequently, slices were rinsed with 15 ml of fresh buffer and transferred to a glass superfusion chamber. Slices were superfused (1.0 ml/min) for 60 min with Krebs' buffer containing nomifensine (10 μm) and pargyline (10 μm) and maintained at 34° C., pH 7.4 with continual aeration (95% O2 /5% CO2). Two 5-min samples (5 ml) were collected to determine basal outflow of [^3 H]DA. N-Substituted nicotine analogues were added to the superfusion buffer after the collection of the second sample and remained in the buffer until 12 consecutive 5-min samples were collected. […] At the end of the experiment each slice was solubilized and the [^3 H] content of the tissue determined.
(§3) Radioactivity in the superfusate and tissue samples was determined by liquid scintillation spectroscopy. Fractional release for each superfusate sample was calculated by dividing the total tritium collected in each sample by the total tritium present in the tissue at the time of sample collection. Basal [^3 H]out flow was calculated from the average of the tritium collected in the two 5-min samples just before addition of the N-substituted nicotine analogue. The sums of the increase in collected tritium resulting from either exposure to the test compound or exposure to nicotine in the absence and presence of the test compound equaled total [^3 H]overflow. [^3 H]overflow was calculated by subtracting the [^3 H]outflow during an equivalent period of prestimulation from the values in samples collected during and after drug exposure. Inasmuch as the radiolabelled compounds were not separated and identified, the tritium collected in superfusate is referred to as either [^3 H]outflow or [^3 H]overflow, rather than as [^3 H]DA. [^3 H]Overflow primarily represents [^3 H]DA in the presence of nomifensine and pargyline in the superfusion buffer (Zumstein et al. 1981).

[2] = system: rat striatal synaptosomes; settings: cited from earlier work
[3] = system: receptors that contain the α7, α8, or α9 subunits; settings: cited from earlier work
[4] = system: rat hypothalamic and corticotropin-releasing hormone secretion; settings: cited from earlier work
[5] = system: S(-)nicotine (10 μM)-evoked [^3 H]DA release from rat striatal slices; format: cell-based
Protocol: as §1, §2, §3
In these experiments, the striatal slices were superfused for 60 min with various concentrations of the analogues prior to nicotine (10 μM) exposure. Antagonist activity was evaluated by comparing the nicotine-evoked [^3 H]overflow in the absence and presence of the analogues. […] The relative order of potency of the classical and pyridine-N substituted nicotine analogues for inhibition of nicotine-evoked [^3 H]DA release from rat striatal slices is illustrated in FIG. 2 by a comparison of their IC50 values.
FIG. 2. IC50 values for N-substituted analogues of nicotine, nornicotine, and cotinine to inhibit nicotine-evoked [^3 H]DA release from rat striatal slices. Inhibition produced by the classical nicotinic inhibitors, mecamylamine (MEC) and DHBE was also determined. Slices were superfused with inhibitor for 60 min […] co-superfusion with 10 μM nicotine. Inhibition was determined by comparing [^3 H]DA release in the absence and presence of various concentrations of inhibitor. IC50 values were determined using the Logit-log plot (pseudo-Hill plot). […] IC50 for each animal was determined as the intercept of the linear regression.

physchem = settings: for pKa: d2o, 1H-NMR
Protocol: (§4) pKa Determination. A solution [1 g in 12 mls of deuterium oxide 100% atom D] of the compound under investigation was gradually acidified by drop-wise addition of a solution of DC1 to D2 O (20% wt/wt, 99.5% atom D). The pD values were measured on a Corning pH meter. For each pD value, a sample (0.8 mls) was analyzed by ^1 H-NMR on a Varian Unity 300 MHz spectrometer using sodium 3(trimethylsilyl)-2,2,3,3-d4 -propionate (TSP) as internal reference. Protonation of the pyrrolidine- and pyridine-N atoms was followed by observing the variation in chemical shift of the N-1'-methyl and 2'-proton signals from pO 8.8 to pD 3.0. A titration curve of pD vs chemical shift was constructed to determine the pKa values of pyrrolidino-N atom and/or the pyridine-N atom.
as §4, with “Computational Chemistry.” for “pKa Determination.”, “3-(trimethylsilyl)-2,2,3,3-d4” for “3(trimethylsilyl)-2,2,3,3-d4”, “N-1'methyl” for “N-1'-methyl”, “pD” for “pO”

rabbit caudate nucleus = settings: cited from earlier work
[6] = system: dopamine 2 agonist binding in rat basil ganglia; settings: in vivo; cited from earlier work
[7] = animal and human experiments; cited from earlier work
[8] = Ames type assays and chronic exposure studies; cited from earlier work
skin = settings: cited from earlier work
nicotine receptor = settings: cited from earlier work
[9] = pKa of pyrrolidino-N (N'-amino) functionality
[10] = Table 3, 1 μM, mean ± S.E.M., rat striatal slices
[11] = Table 3, 10 μM, mean ± S.E.M., rat striatal slices
[12] = Table 3, 100 μM, mean ± S.E.M., rat striatal slices

Question: What does the source list for `O=c1cccc2n1C[C@@H]1CNC[C@H]2C1` [S(-)cytisine, reference compound]?
Answer: effect on [3H]DA release / intrinsic agonist activity (in words) [1]: only marginally released dopamine from the striatal slice; total [3H]overflow (effect on [3H]DA release) [1]: 0.67 ± 0.26 and 0.85 ± 0.38 and 1.13 ± 0.46; Emax ([1]; Rattus norvegicus, read-out: evoked [3H]DA release relative to nicotine): ~20%; effect on [3H]dopamine release from rat striatal synaptosomes [2]: lesser effect of cytisine compared to nicotine in evoking dopamine release from rat striatal synaptosomes

Question: Which “selective blockade of nicotinic receptors with α7, α8 or α9 subunits” value [3] does the source give for α-bungarotoxin here?
Answer: selectively blocks receptors that contain the α7, α8, or α9 subunits

Question: For `CN1[C@@H]2CC[C@H]1C[C@@H](OC(=O)C(CO)c1ccccc1)C2` (stereo partly shown) [atropine], which “effect on IR-rCRH secretion (in words)” value [4] is on record?
Answer: This effect was antagonized by the simultaneous presence of atropine and hexamethonium

Question: Which results are given for `CN1CCC[C@H]1c1cccnc1` [S(-)nicotine, reference compound]?
Answer: effect on [3H]DA release / intrinsic agonist activity (in words) [1]: concentration-dependent increase in [^3 H]DA release and was the most potent and efficacious compound; also recorded: concentration-dependent increase in [^3 H]DA release from rat striatal slices; total [3H]overflow (effect on [3H]DA release) [1]: 2.80 ± 0.28 and 3.24 ± 0.37 and 5.56 ± 0.50; EC50 ([1]; Rattus norvegicus, read-out: EC50 for nicotine-evoked [3H]DA release): 2 µM; nicotine (10 μM)-evoked total [3H]overflow, grand mean [5]: 2.52 ± 0.12; nicotine (10 μM)-evoked total [3H]overflow, range [5]: 1.03-4.65; pKa (physchem; pKa of pyridine-N functionality): 3.75; pKa (physchem; [9]): 8.4; effect on basal outflow of GABA (rabbit caudate nucleus): accelerated the basil outflow of gamma-aminobutyric acid (GABA); effect on IR-rCRH secretion (in words) [4]: stimulated IR-rCRH secretion in a dose-dependent fashion; effect on [3H]dopamine release from rat striatal synaptosomes [2]: stimulates the release of [3H]dopamine from rat striatal synaptosomes; effect of chronic treatment on dopamine 2 agonist binding [6]: decreases dopamine 2 agonist binding in rat basil ganglia

Question: With `CN1CCCC1=O` [N-methyl-2-pyrrolidone] as the compound, how does the “irritation or sensitization potential” value [7] read?
Answer: very little irritation or sensitization potential

Question: And the toxicity [8]?
Answer: have not revealed any significant toxicity

Question: What about the skin penetration enhancement (skin) of the same compound?
Answer: effective penetration enhancer

Question: With `C[N+](C)(C)CCOC(N)=O` [carbachol] as the compound, how does the “effect on IR-rCRH secretion (in words)” value ([4]; in vitro, p less than 0.05 for antagonists of acetylcholine) read?
Answer: stimulated IR-rCRH secretion in a dose-dependent fashion

Question: With `C[N+](C)(C)CCCCCC[N+](C)(C)C` [hexamethonium] as the compound, how does the “effect on IR-rCRH secretion (in words)” value [4] read?
Answer: This effect was antagonized by the simultaneous presence of atropine and hexamethonium

Question: Which “total [3H]overflow (effect on [3H]DA release)” value [1, 10] does the source give for `C=CC[n+]1cccc([C@@H]2CCCN2C)c1` [NANI, S-N-allylnicotiniumiodide] here?
Answer: 0.02 ± 0.02

Question: And the “total [3H]overflow (effect on [3H]DA release)” value [1, 11]?
Answer: 0.07 ± 0.04

Question: And the “total [3H]overflow (effect on [3H]DA release)” value [1, 12]?
Answer: 0.08 ± 0.03

Question: What about the “nicotinic antagonist activity / inhibition of nicotine-evoked [3H]DA release (in words)” value [5] of the same compound?
Answer: Significant antagonist activity; also recorded: significantly lower potency and efficacy; also recorded: possessing antagonist activity; also recorded: preferred nicotinic receptor antagonist activity

Question: And the “relative order of potency for inhibition of nicotine-evoked [3H]DA release (comparison of IC50 values)” value [5]?
Answer: NBNB=NPNI=NnNBI=NANI>NHENI

Question: What about the pKa (physchem; [9]) of the same compound?
Answer: 6.4

Question: What about the predominant ionization form (physchem; physiological pH) of the same compound?
Answer: exist predominantly in their unprotonated form at physiological pH

Question: Which agonist/antagonist character (nicotine receptor) does the source give for `CN1[C@@H](CC(=O)c2ccccc2)CCC[C@H]1C[C@H](O)c1ccccc1` [alpha-lobeline] here?
Answer: mixed agonist-antagonist

Question: Which “total [3H]overflow (effect on [3H]DA release)” value [1, 10] does the source give for `CN1C(=O)CC[C@H]1c1ccc[n+](C)c1` [NMCI, S-N-methylcotininium iodide] here?
Answer: 0.00 ± 0.00

Question: What about the “total [3H]overflow (effect on [3H]DA release)” value [1, 11] of the same compound?
Answer: 0.01 ± 0.01

Question: And the “total [3H]overflow (effect on [3H]DA release)” value [1, 12]?
Answer: 0.02 ± 0.01

Question: What about the “nicotinic antagonist activity / inhibition of nicotine-evoked [3H]DA release (in words)” value [5] of the same compound?
Answer: did not exhibit significant nicotinic antagonist activity over the concentration range tested; also recorded: devoid of antagonist activity

Question: What about the “relative order of potency for inhibition of nicotine-evoked [3H]DA release (comparison of IC50 values)” value [5] of the same compound?
Answer: NMNI=S-N-methylcotininium iodide (NMCI)=S-N'-methyl nicotinium iodide (PIPNMN)

Question: And the “total [3H]overflow during cosuperfusion with 10 μM nicotine” value [5]?
Answer: 3.11 ± 1.32 and 3.11 ± 1.20 and 3.75 ± 1.66

Question: With `CCC[n+]1cccc([C@@H]2CCCN2C)c1` [NPNI, S-N-propyl nicotinium iodide] as the compound, how does the “total [3H]overflow (effect on [3H]DA release)” value [1, 10] read?
Answer: 0.06 ± 0.01

Question: And the “total [3H]overflow (effect on [3H]DA release)” value [1, 11]?
Answer: 0.03 ± 0.03

Question: And the “total [3H]overflow (effect on [3H]DA release)” value [1, 12]?
Answer: 0.03 ± 0.03

Question: And the “nicotinic antagonist activity / inhibition of nicotine-evoked [3H]DA release (in words)” value [5]?
Answer: Significant antagonist activity; also recorded: significantly lower potency and efficacy; also recorded: preferred nicotinic receptor antagonist activity

Question: What about the “relative order of potency for inhibition of nicotine-evoked [3H]DA release (comparison of IC50 values)” value [5] of the same compound?
Answer: NBNB=NPNI=NnNBI=NANI>NHENI

Question: For `C=CCN1CCCC1c1ccc[n+](CC=C)c1` (racemic) [(±)DNANI, (±)di-N-allyl nicotinium iodide], which “total [3H]overflow (effect on [3H]DA release)” value [1, 10] is on record?
Answer: 0.02 ± 0.01

Question: And the “total [3H]overflow (effect on [3H]DA release)” value [1, 11]?
Answer: 0.08 ± 0.04

Question: What about the “total [3H]overflow (effect on [3H]DA release)” value [1, 12] of the same compound?
Answer: 0.00 ± 0.00

Question: What about the “nicotinic antagonist activity / inhibition of nicotine-evoked [3H]DA release (in words)” value [5] of the same compound?
Answer: did not exhibit significant nicotinic antagonist activity over the concentration range tested; also recorded: relatively weak antagonist activity compared to the N-allyl nicotine analogue (NANI)

Question: What about the “relative order of potency for inhibition of nicotine-evoked [3H]DA release (comparison of IC50 values)” value [5] of the same compound?
Answer: (±)di-N-allyl nicotinium iodide (DNANI)=(±)N-methyl nornicotinium iodide (NMNNI)=NMNI

Question: And the “total [3H]overflow during cosuperfusion with 10 μM nicotine” value [5]?
Answer: 2.58 ± 0.54 and 1.85 ± 0.25 and 1.66 ± 0.36

Question: For `CN1CCC[C@H]1c1ccc[n+](C)c1` [NMNI], which “total [3H]overflow (effect on [3H]DA release)” value [1, 10] is on record?
Answer: 0.13 ± 0.11

Question: What about the “total [3H]overflow (effect on [3H]DA release)” value [1, 11] of the same compound?
Answer: 0.17 ± 0.10

Question: And the “total [3H]overflow (effect on [3H]DA release)” value [1, 12]?
Answer: 0.08 ± 0.06

Question: What about the “nicotinic antagonist activity / inhibition of nicotine-evoked [3H]DA release (in words)” value [5] of the same compound?
Answer: did not exhibit significant nicotinic antagonist activity over the concentration range tested; also recorded: no antagonistic activity; also recorded: devoid of antagonist activity

Question: What about the “relative order of potency for inhibition of nicotine-evoked [3H]DA release (comparison of IC50 values)” value [5] of the same compound?
Answer: NMNI=S-N-methylcotininium iodide (NMCI)=S-N'-methyl nicotinium iodide (PIPNMN)
